These results are taken from ChEMBL document CHEMBL1932922, “Synthesis, antitubercular evaluation and 3D-QSAR study of N-phenyl-3-(4-fluorophenyl)-4-substituted pyrazole derivatives” (Bioorg Med Chem Lett, 2012).

The structures appear in SMILES notation. Some results are limits rather than exact numbers.

As usually defined, the IC90 is the point of the concentration-response curve where the effect stands at 90%. High values mean a need for much substance, low ones an effect from little substance.

The test relates to Mycobacterium tuberculosis. Briefly: Antituberculosis activity against Mycobacterium tuberculosis H37Rv ATCC 27294 by modified BACTEC 460 method. It counts as functional, organism-based. The following applies: for IC50 / IC90: Mycobacterium tuberculosis, H37Rv ATCC 27294.

`Cc1ccc(C2=NN[C@@H](c3cn(-c4ccccc4)nc3-c3ccc(F)cc3)C2)cc1` yielded a pIC90 of 5.39. The IC50 (read-out: pIC50 (converted)) was 5.37 µM.
`Fc1ccc(-c2nn(-c3ccccc3)cc2[C@H]2CC(c3ccc(Cl)cc3)=NN2)cc1` showed a pIC90 of 4.16 and an IC90 of 68.7 µM. For the same compound, where the note is “read-out: IC50”, the IC50 was 43.3 µM. In addition, under “read-out: pIC50 (converted)”, the IC50 is 43.7 µM.
The matching figures for `COc1ccc(C2=NN[C@@H](c3cn(-c4ccccc4)nc3-c3ccc(F)cc3)C2)cc1`: 4.91, 12.3 µM, 0.47 µM and 0.468 µM.
The matching figures for `O=C(/C=C/c1cn(-c2ccccc2)nc1-c1ccc(F)cc1)c1ccccc1`: 4.79, 16.3 µM, 10.5 µM and 10.5 µM.
The matching figures for `COc1ccc(C(=O)/C=C/c2cn(-c3ccccc3)nc2-c2ccc(F)cc2)cc1`: 5, 10.1 µM, 6.39 µM and 6.46 µM.
For `Cc1ccc(C(=O)/C=C/c2cn(-c3ccccc3)nc2-c2ccc(F)cc2)cc1`, the pIC90 was determined as 5.1 and the IC90 is 7.96 µM. For the same compound, where the note is “read-out: IC50”, the IC50 was 7.18 µM. The IC50 (read-out: pIC50 (converted)) is 7.24 µM.
Taken in the same sequence, the figures for `O=C(/C=C/c1cn(-c2ccccc2)nc1-c1ccc(F)cc1)c1ccc(Cl)cc1` were 4.15, 71.3 µM, 33.9 µM and 33.9 µM.
The matching figures for `O=C(/C=C/c1cn(-c2ccccc2)nc1-c1ccc(F)cc1)c1ccc(F)cc1`: 5.09, 8.09 µM, 7.14 µM and 7.08 µM.
Taken in the same sequence, the figures for `O=C(/C=C/c1cn(-c2ccccc2)nc1-c1ccc(F)cc1)c1ccc(O)cc1` were 5.07, 8.47 µM, 7.46 µM and 7.41 µM.
`O=C(/C=C/c1cn(-c2ccccc2)nc1-c1ccc(F)cc1)c1ccccc1O`: the pIC90 is listed as 4.34 and the IC90 came to 45.4 µM. In addition, for the setting “read-out: IC50”, the IC50 is 26.2 µM. Moreover, where the note is “read-out: pIC50 (converted)”, the IC50 was 26.3 µM.
`O=C(/C=C/c1cn(-c2ccccc2)nc1-c1ccc(F)cc1)c1ccc([N+](=O)[O-])cc1` displayed a pIC90 of 4.27 and an IC90 of 53.5 µM. Further, for the setting “read-out: IC50”, the IC50 was found to be 12.7 µM. Further, where the note is “read-out: pIC50 (converted)”, the IC50 was 12.6 µM.
Taken in the same sequence, the figures for `O=C(/C=C/c1cn(-c2ccccc2)nc1-c1ccc(F)cc1)c1ccc(Br)cc1` were 4.74, 18.1 µM, 9.77 µM and 9.77 µM.
The matching figures for `O=C(/C=C/c1cn(-c2ccccc2)nc1-c1ccc(F)cc1)c1cccs1`: 4.87, 13.5 µM, 8.08 µM and 8.13 µM.
Consider `Oc1ccc(C2=NN[C@@H](c3cn(-c4ccccc4)nc3-c3ccc(F)cc3)C2)cc1`, for which the pIC90 came out at 4.3 and it took 49.8 µM to reach the 90% level (IC90). In addition, the IC50 (read-out: IC50) was 31 µM. Further, the IC50 (read-out: pIC50 (converted)) was 30.9 µM.
Consider `Oc1ccccc1C1=NN[C@@H](c2cn(-c3ccccc3)nc2-c2ccc(F)cc2)C1`, for which the pIC90 is 4.5 and it took 31.7 µM to reach the 90% level (IC90). For the same compound, the IC50 (read-out: IC50) was 28.1 µM. Besides, the IC50 (read-out: pIC50 (converted)) is 28.2 µM.
Taken in the same sequence, the figures for `O=[N+]([O-])c1cccc(C2=NN[C@@H](c3cn(-c4ccccc4)nc3-c3ccc(F)cc3)C2)c1` were 4.16, 68.7 µM, 39 µM and 38.9 µM.
The matching figures for `Fc1ccc(-c2nn(-c3ccccc3)cc2[C@H]2CC(c3ccc(Br)cc3)=NN2)cc1`: 4.64, 22.9 µM, 7.9 µM and 7.94 µM.
As for `Nc1ccc(C2=NN[C@@H](c3cn(-c4ccccc4)nc3-c3ccc(F)cc3)C2)cc1`, the pIC90 turned out to be 3.9 and the 90% effect level (IC90) was put at 127 µM. Besides, the IC50 (read-out: IC50) was determined as 74.4 µM. Where the note is “read-out: pIC50 (converted)”, the IC50 is 74.1 µM.
The matching figures for `O=C(c1ccccc1)N1N=C(c2ccccc2)C[C@@H]1c1cn(-c2ccccc2)nc1-c1ccc(F)cc1`: 4.06, 86.4 µM, 50.4 µM and 50.1 µM.
The matching figures for `COc1ccc(C2=NN(C(=O)c3ccccc3)[C@@H](c3cn(-c4ccccc4)nc3-c3ccc(F)cc3)C2)cc1`: 4.62, 23.8 µM, 13.8 µM and 13.8 µM.
Taken in the same sequence, the figures for `Cc1ccc(C2=NN(C(=O)c3ccccc3)[C@@H](c3cn(-c4ccccc4)nc3-c3ccc(F)cc3)C2)cc1` were 5.46, 3.48 µM, 3.02 µM and 3.02 µM.
As to `O=C(c1ccccc1)N1N=C(c2ccc(Cl)cc2)C[C@@H]1c1cn(-c2ccccc2)nc1-c1ccc(F)cc1`, the pIC90 is under 3.72 and the IC90 was over 192 µM. In addition, the IC50 (read-out: IC50) came out at 51.4 µM. Also, the IC50 (read-out: pIC50 (converted)) is 51.3 µM.
The matching figures for `O=C(c1ccccc1)N1N=C(c2ccc(F)cc2)C[C@@H]1c1cn(-c2ccccc2)nc1-c1ccc(F)cc1`: 5.49, 3.22 µM, 2.65 µM and 2.63 µM.
The matching figures for `O=C(c1ccccc1)N1N=C(c2ccc([N+](=O)[O-])cc2)C[C@@H]1c1cn(-c2ccccc2)nc1-c1ccc(F)cc1`: under 3.73, over 187 µM, 57.4 µM and 57.5 µM.
Taken in the same sequence, the figures for `O=C(c1ccccc1)N1N=C(c2cccc([N+](=O)[O-])c2)C[C@@H]1c1cn(-c2ccccc2)nc1-c1ccc(F)cc1` were 3.99, 101 µM, 42.4 µM and 42.7 µM.
In the case of `O=C(c1ccccc1)N1N=C(c2ccc(Br)cc2)C[C@@H]1c1cn(-c2ccccc2)nc1-c1ccc(F)cc1`, the pIC90 is 4.12 and the IC90 was determined as 75.7 µM. The IC50 (read-out: IC50) stood at 37.8 µM. In addition, the IC50 (read-out: pIC50 (converted)) is 38 µM.
The matching figures for `O=C(c1ccccc1)N1N=C(c2cccs2)C[C@@H]1c1cn(-c2ccccc2)nc1-c1ccc(F)cc1`: 4.05, 88.7 µM, 46.9 µM and 46.8 µM.
Taken in the same sequence, the figures for `O=NN1N=C(c2ccccc2O)C[C@@H]1c1cn(-c2ccccc2)nc1-c1ccc(F)cc1` were under 3.63, over 234 µM, 119 µM and 117 µM.
`O=NN1N=C(c2ccc([N+](=O)[O-])cc2)C[C@@H]1c1cn(-c2ccccc2)nc1-c1ccc(F)cc1` had a pIC90 of 4.39 and an IC90 of 40.5 µM. Moreover, the IC50 (read-out: IC50) was determined as 25.3 µM. Moreover, the IC50 (read-out: pIC50 (converted)) is 25.1 µM.
Taken in the same sequence, the figures for `O=NN1N=C(c2cccc([N+](=O)[O-])c2)C[C@@H]1c1cn(-c2ccccc2)nc1-c1ccc(F)cc1` were 4.48, 33.4 µM, 22.5 µM and 22.4 µM.
The matching figures for `O=NN1N=C(c2ccc(Br)cc2)C[C@@H]1c1cn(-c2ccccc2)nc1-c1ccc(F)cc1`: 4.47, 33.7 µM, 21.4 µM and 21.4 µM.
Taken in the same sequence, the figures for `Nc1ccc(C2=NN(N=O)[C@@H](c3cn(-c4ccccc4)nc3-c3ccc(F)cc3)C2)cc1` were 4.42, 37.8 µM, 20.9 µM and 20.9 µM.
On to `O=NN1N=C(c2cccs2)C[C@@H]1c1cn(-c2ccccc2)nc1-c1ccc(F)cc1`, for which the pIC90 was 4.33 and the IC90 is 46.3 µM. The IC50 (read-out: IC50) was found to be 26.4 µM. Moreover, the IC50 (read-out: pIC50 (converted)) is 26.3 µM.
The matching figures for `Cc1ccc(-c2cc(-c3cn(-c4ccccc4)nc3-c3ccc(F)cc3)[nH]c(=S)n2)cc1`: 4.45, 35.5 µM, 22.2 µM and 22.4 µM.
Consider `Fc1ccc(-c2nn(-c3ccccc3)cc2-c2cc(-c3ccc(Cl)cc3)nc(=S)[nH]2)cc1`, for which the pIC90 is reported as 4.74 and the IC90 is 18 µM. For the same compound, under “read-out: IC50”, the IC50 was 10.3 µM. Where the note is “read-out: pIC50 (converted)”, the IC50 is 10.2 µM.
The matching figures for `Oc1ccc(-c2cc(-c3cn(-c4ccccc4)nc3-c3ccc(F)cc3)[nH]c(=S)n2)cc1`: under 3.64, over 227 µM, 69.2 µM and 69.2 µM.
Taken in the same sequence, the figures for `Oc1ccccc1-c1cc(-c2cn(-c3ccccc3)nc2-c2ccc(F)cc2)[nH]c(=S)n1` were 4.95, 11.2 µM, 8.29 µM and 8.32 µM.
`O=[N+]([O-])c1ccc(-c2cc(-c3cn(-c4ccccc4)nc3-c3ccc(F)cc3)[nH]c(=S)n2)cc1`: the pIC90 is recorded as 4.88 and the IC90 is 13.1 µM. Also, the IC50 (read-out: IC50) stood at 12.2 µM. Also, the IC50 (read-out: pIC50 (converted)) was 12 µM.
With `O=[N+]([O-])c1cccc(-c2cc(-c3cn(-c4ccccc4)nc3-c3ccc(F)cc3)[nH]c(=S)n2)c1`, the pIC90 is listed as 4.37 and the 90% effect level (IC90) was put at 43 µM. Further, the IC50 (read-out: IC50) is 27.9 µM. Moreover, the IC50 (read-out: pIC50 (converted)) was 28.2 µM.
Consider `Fc1ccc(-c2nn(-c3ccccc3)cc2-c2cc(-c3ccc(Br)cc3)nc(=S)[nH]2)cc1`, for which the pIC90 was determined as 4.42. For the same compound, the IC50 (read-out: pIC50 (converted)) is 115 µM.
In turn, `Nc1ccc(-c2cc(-c3cn(-c4ccccc4)nc3-c3ccc(F)cc3)[nH]c(=S)n2)cc1` returned a pIC90 of under 3.64 and an IC90 of over 228 µM. The IC50 (read-out: IC50) stood at 22.1 µM. For the same compound, the IC50 (read-out: pIC50 (converted)) was 21.9 µM.
